Key:
Assay type in all cases: in vivo, human
subject's mood [1] = test: Actimood scoring (correlation of EmoChar and IRT values); conditions: scale 0 (low impact) to 3 (high impact)
Method: (§1) 1. Sensorial and Emotional Evaluation of Fragrance Raw Materials Each fragrance was evaluated by 30 subjects. At each appointment, the subject discovered fragrances in one sequence of four fragrances and two sequences of three fragrances separated by a 10-minute break.
(§2) For each fragrance, the subject discovered each fragrance on a card strip for 10 seconds. Between each product, a rest-period of 2 minutes was carried out during which the subject smelt their own body odour by smelling their wrist and the subject drank a little bit of water as well.
Emochar™ is a system of emotional characterization, scoring 7 main emotional dimensions from 0 to 10: • Stimulation: focus, attention, and awakening. • Relaxation: serenity, relaxation and appeasing. • Sensual: arousing, sexy and erotic. • Pleasure: liking, “gourmand” and satisfaction. • Tenderness: gentleness and softness. • Joy: excitement, fun and enthusiasm. • Self-esteem: confidence and assurance
Actimood scores are based on a correlation of EmoChar™ and IRT values. The scores are classified on a scale from 0 (low impact on subject's mood) to 3 (high impact on subject's mood).
Each score is obtained according to an algorithm, mixing verbal and non-verbal responses of volunteers to a specific product, or stimulus in a given context. The algorithm was developed from extensive field data, and in accordance with scientific literature and validated biobehavioral patterns associated to various emotional states.

subject's mood [2] = test: Implicit response test (IRT); set-up: scale not given here
Method: as §1
(§3) During those appointments, the subjects smelt the fragrances in a random way.
as §2
(§4) The evaluation is carried out in standardized lighting conditions and under a monitored temperature (temperature 21±1.5° C.).
Implicit response tests (IRTs) are a family of tests and assess the subjects' immediate, “gut instinct” responses the fragrance raw materials.
The alleged underlying processes are based on how neurosciences describe the way our brain processes information. Indeed, our brain processes information through two systems: System 2, which is slow and processes conscious information, and System 1, which is fast and processes non-conscious information.
The IRT tests are performed at a computer, where the following words appear on the computer screen: • Energizing • Relaxing • Attractive • Sensual • Joyful • Protective • Confident • Fresh • Well-being
The subject has to click on the screen with the computer mouse to indicate their accordance or not of the word with the tested fragrance. In addition, the times to click the button are recorded.

subject's mood [3] = test: Sensorial and emotional evaluation of fragrance raw materials and fragrance compositions (prosody, verbatim, GEW, IRT, EmoChar combined to one mood); conditions: 30 subjects, card strip for 10 seconds; details in FIG. 1-9
Method: as §1, §3, §2, §4
The different recordings are carried in technical room during talking with the technicians. he following tests were performed for more than 100 different fragrance raw materials.
The following testing procedures were used to determine one mood out of five different testing strategies. All results of the single testing protocols as described in 1.1 to 1.5 were combined and one mood per fragrance raw material or fragrance composition was determined based on the single testing results.
Fragrance compositions were designed by combining the tested fragrance raw materials and the compositions were tested in 30 different subjects to evaluate the emotional impression conveyed by the fragrance composition as described above for the fragrance raw materials.

[4] = ingredients of the fragrance composition conveying an attractive mood (Table 2)

Molecule | Actimood score (subject's mood [1]; attractive mood (Table 11)) | Actimood score (subject's mood [1]; joyful mood (Table 6)) | IRT Score (subject's mood [2]; [4]) | mood conveyed by the fragrance raw material (subject's mood [3]) | Actimood score (subject's mood [1]; fresh mood (Table 12)) | Actimood score (subject's mood [1]; sensual mood (Table 8)) | Actimood score (subject's mood [1]; well-being mood (Table 10)) | IRT Score (subject's mood [2]; ingredients of the fragrance composition conveying a fresh mood (Table 1)) | Actimood score (subject's mood [1]; protective mood (Table 5)) | Actimood score (subject's mood [1]; self-confident mood (Table 9))
CCc1occc(=O)c1O [ETHYL MALTOL, 2-ethyl-3-hydroxy-pyran-4-one] | 3 | 3 | 3505 | conveying an attractive mood | – | – | – | – | – | –
CC1(C)CCCC2(C)C1CCC1(C)OCCC12 (centres unmarked) [AMBROXIDE, 3a,6,6,9a-Tetramethyldodecahydronaphtho[2,1-b]furan] | 3 | 3 | 1921 | conveying a self-confident mood | 3 | 2 | 3 | 1643 | – | –
COC1(C)CCC23CC1C(C)(C)C2CCC3C (centres unmarked) [CEDRAMBER, 8-methoxy-2,6,6,8-tetramethyl-tricyclo[5.3.1.01,5]undecane] | – | – | – | conveying a sensual mood | – | 3 | 0 | – | – | –
C=CCOC(=O)CCC1CCCCC1 [ALLYL CYCLOHEXYL PROPIONATE, allyl 3-cyclohexylpropanoate] | – | 3 | – | conveying a joyful mood | – | – | – | – | – | –
CCOc1cc(C=O)ccc1O [ETHYL VANILLIN, 3-ethoxy-4-hydroxy-benzaldehyde] | 3 | – | 2786 | conveying a well-being mood | – | – | – | – | 1 | –
Oxacyclohexadecen-2-one [GLOBALIDE ®] | 3 | – | 1815 | conveying a relaxing mood | – | – | 2 | – | 2 | –
CC1C(C)(C)C2=C(C(=O)CCC2)C1(C)C (centres unmarked) [CASHMERAN, 1,1,2,3,3,-pentamethyl-2,5,6,7-tetrahydroinden-4-one] | 3 | – | 1469 | conveying a protective mood | – | – | 1 | – | 2 | 2

— US20250302728A1, “FRAGRANCE COMPOSITIONS AND PRODUCTS CONVEYING A POSITIVE MOOD” (SYMRISE AG, priority 2022, published 2025)
